# Reference: patent US10800755B2, “2,6-disubstituted pyridine derivative” (Sumitomo Dainippon Pharma Co., Ltd., priority 2017, dated 2020)
# Key:
# human 5-HT1A receptor [1] = biological target: T1, human 5-HT1A receptor (Homo sapiens (Human), UniProt P08908); test: Test 1: agonistic activity for human 5-HT1A receptor (aequorin/Gα16 luminescence in CHO-K1 cell); assay type: cell-based; details: for Emax: CHO-K1; for Emax / 5-HT1A agonistic activity Emax: 100% = 10 μmol/L endogenous ligand; for EC50: CHO-K1 cell, aequorin luminescence
# Description: (§1) Test 1: Evaluation of Agonistic Activity for Human 5-HT1A Receptor and Human D4 Receptor
# (§2) Aequorin, Gα16 proteins, and each receptor were transiently expressed in CHO-K1 cell (Chinese hamster ovary), and seeded to 384-well plate. The plate was incubated in a CO2 incubator at 37° C. for 24 hours. Each example compound dissolved in DMSO was added thereto, and the change of luminescence amount was measured with Hamamatsu FDSS/μCELL System (Hamamatsu Photonics).
# [2] = Test 3-1: metabolic stability test of human liver microsome (0.1 mg/mL); assay type: in vitro ADME; details: test compound 0.1 μmol/L, 37° C., 30 minutes
# Description: Test 3-1: Metabolic Stability Test of Human Liver Microsome
# (§3) The stability of the present compounds for human liver microsome metabolism was evaluated as mentioned below. The used human liver microsome was obtained from Xenontech. Human liver microsome, NADPH, and each test compound were mixed in 25 mmol/L phosphate buffer solution (pH 7.4) to adjust each concentration as shown below, and the mixture was incubated at 37° C. for 30 minutes. • human liver microsome: 0.1 mg/mL • NAPDH: 3.2 mmol/L • test compound: 0.1 μmol/L
# (§4) The residual ratio of the test compound in each sample after the incubation for 30 minutes was measured with a LC-MS, and the metabolic stability of human liver microsome was calculated about each test compound with the following formula. Metabolic stability of human liver microsome (mL/min/mg protein)=−LN (residual ratio)/“reaction time”/“concentration of human liver microsome”
# human 5-HT1A receptor [3] = biological target: T1, human 5-HT1A receptor; test: Test 2: binding activity to human 5-HT1A receptor ([3H] 8-OH-DPAT, CHO cell membrane); details: [3H] 8-OH-DPAT; read-out: 5-HT1A binding affinity (Ki value)
# Description: (§5) Test 2: Evaluation of Binding Activity to Human 5-HT1A Receptor, Human D4 Receptor, and Human D2 Receptor
# (§6) CHO cell membrane fraction in which human 5-HT1A receptor, human D4 receptor, and human D2 receptor were expressed was purchased from PerkinElmer Co., Ltd. In the evaluation test of binding, the test compound dissolved in DMSO, each receptor membrane preparation diluted with buffer solution, and [3H] […] The nonspecific binding to each receptor was evaluated by a competition binding experiment in the presence of 10 μmol/L 8-OH-DPAT, 10 μmol/L dopamine, or 10 μmol/L spiperone, respectively.
# human D4 receptor [4] = biological target: T2, human D4 receptor (Homo sapiens (Human), UniProt P21917); test: Test 1: agonistic activity for human D4 receptor (aequorin/Gα16 luminescence in CHO-K1 cell); assay type: cell-based; details: for Emax: CHO-K1; for Emax / D4 agonistic activity Emax: 100% = 10 μmol/L endogenous ligand; for EC50: CHO-K1 cell, aequorin luminescence
# Description: as §1, §2
# [5] = Test 3-2: metabolic stability test of human liver microsome (0.5 or 1.0 mg/mL); assay type: in vitro ADME; details: test compound 0.1 μmol/L, 37° C., 30 minutes
# Description: Test 3-2: Metabolic Stability Test of Human Liver Microsome
# as §3, with “In order to evaluate the metabolic stability of human liver microsomes more precisely, the stability” for “The stability”, “evaluated with a suitable concentration of human liver microsome,” for “evaluated”, “microsome: 0.5 or 1.0” for “microsome: 0.1”
# as §4
# SD male rat = test: Test 6: contextual fear conditioning test; assay type: in vivo; details: 10 mg/kg administration
# Description: Test 6: Contextual Fear Conditioning Test
# The antianxiety of the present compounds was evaluated in a manner mentioned below.
# The evaluation of an 8-week-old SD male rat with a fear conditioning test system (O'HARA & CO., LTD.) was carried out in 2-day test schedule. On the 1st day of the test, by giving 0.5 mA of electric shock to the rat as unconditioned stimulus 5 times for 6 minutes, the rat was made to learn the relationship the context (the illuminance in the cage: 200 lx) which was given as conditioned stimulus, and phobic stimulus. On the 2nd day, the present compound was subcutaneously administered with saline solution to the rat, or orally administered with methylcellulose suspension to the rat. 0.5 or 1 hour after the administration, the rat was made to softly enter the cage under the condition in which the unconditioned stimulus was not given in the context. The time of cataleptic freezing reaction that the rat took for 5-minute freely-moving period and its ratio were measured. The ratios of cataleptic freezing reaction between the solvent-administration group and the present compound-administration group were compared to be statistically processed.
# human D2 receptor = human D2 receptor (Homo sapiens (Human), UniProt P14416); test: Test 2: binding activity to human D2 receptor ([3H] spiperone, CHO cell membrane); details: [3H] spiperone; read-out: D2 binding affinity (Ki value)
# Description: as §5, §6
# [6] = Test 4-2: predictive test of human half-life (monkey distribution volume, serum unbound fraction, Test 3-2 stability); details: in vivo, predicted using Test 3-2 metabolic stability
# Description: Test 4-2: Predictive Test of Human Half-Life
# (§7) 0.01 mol/L of the present compound in aqueous hydrochloric acid solution was parenterally administered to cynomolgus monkey. 5 minutes, 15 minutes, 30 minutes, 1 hour, 2 hours, 4 hours, 6 hours, and 24 hours after the administration, the blood was collected. The plasma was obtained from the collected blood, the drug concentration in the plasma was measured with a LC-MS, and the monkey distribution volume was calculated from the transition of the concentrations. The unbound fraction rate of the present compound in serum of human and monkey was measured by equilibrium dialysis method.
# Using the monkey distribution volume, the unbound fraction rate in serum of human and monkey, and the result of the metabolic stability of human liver microsome which was obtained in Test 3-2, the half-life in human was calculated according to the formula below. “Human distribution volume”=“monkey distribution volume”×“unbound fraction rate in serum of human”/“unbound fraction rate in serum of monkey” “Human hepatic clearance”=(“human hepatic blood flow”×“unbound fraction rate in serum of human”×56.7×“metabolic stability of human liver microsome”)/(“human hepatic blood flow”+“unbound fraction rate in serum of human”×56.7×“metabolic stability of human liver microsome”) “Half-life in human”=0.693×“human distribution volume”/“human hepatic clearance”
# human D4 receptor [7] = biological target: T2, human D4 receptor; test: Test 2: binding activity to human D4 receptor ([3H] dopamine, CHO cell membrane); details: [3H] dopamine; read-out: D4 binding affinity (Ki value)
# Description: as §5, §6
# hERG channel = hERG channel (Homo sapiens (Human), UniProt Q12809); test: Test 5-1: activity for inhibiting hERG channel (whole-cell patch clamp, hERG-CHO cell, Qpatch); assay type: cell-based; details: read-out: hERG inhibition IC50
# Description: Test 5-1: Evaluation of Activity for Inhibiting hERG Channel
# The activity of the present compound for inhibiting hERG channel was measured by whole-cell patch clamp method with auto patch clamp system, using CHO cell wherein hERG channel involved in human rapidly activating delayed rectifier potassium current (IKr) was forcibly expressed.
# hERG-CHO cell purchased from ChanTest was incubated at 37° C. in a CO2 incubator, and the cell was exfoliated from the flask with trypsin to prepare a cell suspension, shortly before the hERG current measurement.
# Extracellular fluid: 2 mmol/L CaCl2, 1 mmol/L MgCl2, 10 mmol/L HEPES, 4 mmol/L KCl, 145 mmol/L NaCl, 10 mmol/L glucose
# Intracellular fluid: 5.4 mmol/L CaCl2, 1.8 mmol/L MgCl2, 10 mmol/L HEPES, 31 mmol/L KOH, 10 mmol/L EGTA, 120 mmol/L KCl, 4 mmol/L Na2-ATP
# Test compound solution: The test compound was dissolved in DMSO by adjusting the concentration to 2 mmol/L or 20 mmol/L to prepare each test compound solution. […] (Measurement of Current Value and Data Analysis)
# The cell suspension, the extracellular fluid, the intracellular fluid, and the measurement plate were set in an auto patch clamp system, and the hERG current was measured by whole-cell patch clamp method. […] Each pulse interval was 15 seconds. The data analysis was carried out with Qpatch Assay Software (Biolin Scientific). The test was carried out applying increscently 4 concentrations of each test compound, and the average of the peak tail currents that were obtained by the last 3 stimulations in each applied concentration was determined to be the evaluated data. By using the current inhibition rate for the pre-applied current at each concentration of each test compound, IC50 value was calculated by Hill equation with the software.
# [8] = Test 4-1: predictive test of human half-life (monkey distribution volume, serum unbound fraction, Test 3-1 stability); details: in vivo, predicted using Test 3-1 metabolic stability
# Description: Test 4-1: Predictive Test of Human Half-Life
# as §7
# Using the monkey distribution volume, the unbound fraction rate in serum of human and monkey, and the result of the metabolic stability of human liver microsome which was obtained in Test 3-1, the half-life in human was calculated according to the formula below. “Human distribution volume”=“monkey distribution volume”×“unbound fraction rate in serum of human”/“unbound fraction rate in serum of monkey” “Human hepatic clearance”=(“human hepatic blood flow”×“unbound fraction rate in serum of human”×56.7×“metabolic stability of human liver microsome”)/(“human hepatic blood flow”+“unbound fraction rate in serum of human”×56.7×“metabolic stability of human liver microsome”) “Half-life in human”=0.693×“human distribution volume”/“human hepatic clearance”
# T1 sequence (P08908 whole entry): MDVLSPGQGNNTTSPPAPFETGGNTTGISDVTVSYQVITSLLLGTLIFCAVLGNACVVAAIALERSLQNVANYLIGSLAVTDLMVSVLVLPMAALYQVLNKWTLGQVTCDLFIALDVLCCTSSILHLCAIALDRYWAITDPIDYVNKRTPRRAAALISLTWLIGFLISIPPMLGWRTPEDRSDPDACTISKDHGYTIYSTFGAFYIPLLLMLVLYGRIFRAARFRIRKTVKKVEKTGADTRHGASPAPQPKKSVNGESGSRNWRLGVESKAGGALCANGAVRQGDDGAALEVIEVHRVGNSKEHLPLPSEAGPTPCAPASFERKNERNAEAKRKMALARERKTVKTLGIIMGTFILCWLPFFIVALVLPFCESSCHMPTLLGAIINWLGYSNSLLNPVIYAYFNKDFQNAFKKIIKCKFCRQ
# T2 sequence (P21917 whole entry): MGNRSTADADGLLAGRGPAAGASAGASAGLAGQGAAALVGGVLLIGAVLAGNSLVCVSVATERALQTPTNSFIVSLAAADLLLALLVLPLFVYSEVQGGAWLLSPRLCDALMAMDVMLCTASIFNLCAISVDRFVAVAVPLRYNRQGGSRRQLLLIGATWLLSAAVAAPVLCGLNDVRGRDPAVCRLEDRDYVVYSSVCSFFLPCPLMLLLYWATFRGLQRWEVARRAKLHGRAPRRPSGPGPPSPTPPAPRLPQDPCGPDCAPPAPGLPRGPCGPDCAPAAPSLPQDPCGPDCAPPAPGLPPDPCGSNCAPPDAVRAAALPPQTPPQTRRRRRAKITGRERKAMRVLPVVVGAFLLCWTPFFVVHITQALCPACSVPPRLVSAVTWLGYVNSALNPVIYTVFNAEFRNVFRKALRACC
# Sequence of hERG channel (Q12809 whole entry): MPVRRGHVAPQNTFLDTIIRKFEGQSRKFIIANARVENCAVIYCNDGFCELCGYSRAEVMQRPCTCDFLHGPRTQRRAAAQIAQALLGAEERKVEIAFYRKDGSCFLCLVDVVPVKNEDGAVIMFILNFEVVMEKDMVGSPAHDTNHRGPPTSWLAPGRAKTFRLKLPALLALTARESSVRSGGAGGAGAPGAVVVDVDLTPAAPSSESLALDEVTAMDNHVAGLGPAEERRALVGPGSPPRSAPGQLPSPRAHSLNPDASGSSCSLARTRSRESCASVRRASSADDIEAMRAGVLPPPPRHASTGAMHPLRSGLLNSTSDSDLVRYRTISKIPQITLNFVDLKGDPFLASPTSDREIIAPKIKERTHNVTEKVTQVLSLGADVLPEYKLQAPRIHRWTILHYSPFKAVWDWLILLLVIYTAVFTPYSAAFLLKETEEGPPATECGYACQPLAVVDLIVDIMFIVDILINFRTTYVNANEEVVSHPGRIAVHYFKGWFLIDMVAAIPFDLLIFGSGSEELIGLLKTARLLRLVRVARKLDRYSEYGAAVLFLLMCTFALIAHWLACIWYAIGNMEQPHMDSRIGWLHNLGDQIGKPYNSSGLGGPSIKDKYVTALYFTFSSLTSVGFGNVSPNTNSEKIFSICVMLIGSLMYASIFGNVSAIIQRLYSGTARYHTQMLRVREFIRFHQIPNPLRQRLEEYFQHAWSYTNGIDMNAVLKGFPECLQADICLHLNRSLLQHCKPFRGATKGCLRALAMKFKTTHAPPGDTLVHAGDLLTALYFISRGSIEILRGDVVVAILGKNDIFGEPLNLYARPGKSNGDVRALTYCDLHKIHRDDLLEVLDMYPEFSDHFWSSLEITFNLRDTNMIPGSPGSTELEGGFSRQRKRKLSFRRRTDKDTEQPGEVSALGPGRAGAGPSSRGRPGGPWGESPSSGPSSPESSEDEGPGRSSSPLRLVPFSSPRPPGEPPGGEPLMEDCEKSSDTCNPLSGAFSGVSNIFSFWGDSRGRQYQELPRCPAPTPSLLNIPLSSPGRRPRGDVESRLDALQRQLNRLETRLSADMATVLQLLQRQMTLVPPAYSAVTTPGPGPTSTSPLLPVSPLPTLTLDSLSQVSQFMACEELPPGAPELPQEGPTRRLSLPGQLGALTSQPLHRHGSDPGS
# Sequence of human D2 receptor (P14416 whole entry): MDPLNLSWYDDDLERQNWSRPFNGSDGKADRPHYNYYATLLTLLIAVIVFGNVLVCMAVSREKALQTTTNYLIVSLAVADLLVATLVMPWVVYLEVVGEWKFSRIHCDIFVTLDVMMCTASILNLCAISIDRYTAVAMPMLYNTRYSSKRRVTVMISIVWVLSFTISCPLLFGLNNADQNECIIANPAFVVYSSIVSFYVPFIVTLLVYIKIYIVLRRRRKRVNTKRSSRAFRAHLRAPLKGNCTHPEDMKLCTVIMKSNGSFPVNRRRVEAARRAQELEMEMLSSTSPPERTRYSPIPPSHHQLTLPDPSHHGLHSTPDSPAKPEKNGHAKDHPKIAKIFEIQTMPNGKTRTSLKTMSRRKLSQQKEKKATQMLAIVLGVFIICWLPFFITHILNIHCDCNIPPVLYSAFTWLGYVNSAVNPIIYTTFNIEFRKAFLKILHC
Compound,Emax (human 5-HT1A receptor [1]) [%],EC50 (human 5-HT1A receptor [1]) [µM],Metabolic stability of human liver microsome [2] [mL/min/mg protein],Ki (human 5-HT1A receptor [3]) [µM],Emax (human D4 receptor [4]) [%],EC50 (human D4 receptor [4]) [µM],Metabolic stability of human liver microsome [5] [mL/min/mg protein],Ki (human D2 receptor) [µM],half-life [6] [h],Ki (human D4 receptor [7]) [µM],half-life [8] [h],5-HT1A agonistic activity Emax (human 5-HT1A receptor [1]) [%],D4 agonistic activity Emax (human D4 receptor [4]) [%],decrease of the cataleptic freezing reaction for the solvent-administration group (SD male rat) [%],IC50 (hERG channel) [µM]
Cc1cccc(C2CCN(CCNC(=O)C3CCC(F)(F)CC3)CC2)n1 [Example 4],–,< 0.01,<0.01,0.0004,–,0.0251,–,> 10,–,0.026,–,90,71,–,4
Cc1cccc(C2CCN(CCNC(=O)C3CC4CCC3O4)CC2)n1 (stereo not drawn) [Example 3],–,0.038,<0.01,0.0071,–,0.0335,–,> 10,–,0.198,–,–,76,–,32.1
O=C(NCCN1CCC(c2cccc(C(F)(F)F)n2)CC1)C1CCCOC1 (stereo not drawn) [Example 2],–,0.323,0.069,0.011,–,0.0589,–,> 10,–,0.109,–,86,61,–,> 10

# Further lines, with some results ahead:
Emax (human 5-HT1A receptor [1]) [%],EC50 (human 5-HT1A receptor [1]) [µM],Metabolic stability of human liver microsome [2] [mL/min/mg protein],Ki (human 5-HT1A receptor [3]) [µM],Emax (human D4 receptor [4]) [%],EC50 (human D4 receptor [4]) [µM],Metabolic stability of human liver microsome [5] [mL/min/mg protein],Ki (human D2 receptor) [µM],half-life [6] [h],Ki (human D4 receptor [7]) [µM],half-life [8] [h],5-HT1A agonistic activity Emax (human 5-HT1A receptor [1]) [%],D4 agonistic activity Emax (human D4 receptor [4]) [%],Compound,decrease of the cataleptic freezing reaction for the solvent-administration group (SD male rat) [%],IC50 (hERG channel) [µM]
71,< 0.01,0.017,0.0014,65,0.0371,0.023,> 10,59,0.111,9.2,–,–,"Cc1cccc(C2CCN(CCNC(=O)C3CCOCC3)CC2)n1 [Example 8, N-{2-[4-(6-Methylpyridin-2-yl)piperidin-1-yl]ethyl}-tetrahydro-2H-pyran-4-carboxamide]",41.0,44.3
84,< 0.01,0.025,0.0011,53,< 0.01,0.016,2.44,10,0.008,–,–,–,"CC(C)(C)C(=O)NCCN1CCC(c2cccc(C(F)(F)F)n2)CC1 [Example 9, 2,2-dimethyl-N-(2-{4-[6-(trifluoromethyl)pyridin-2-yl]piperidin-1-yl}ethyl)propanamide]",–,5.9
–,< 0.01,0.017,0.013,–,< 0.01,–,> 10,–,0.043,–,106,58,COCC1(C(=O)NCCN2CCC(c3cccc(C(F)(F)F)n3)CC2)CC1 [Example 7],–,5.6
–,–,0.015,–,–,–,–,–,–,–,–,90,85,Cc1cccc(C2CCN(CCNC(=O)C(C)(C)C)CC2)n1 [Example 10],–,> 10
